In data set [1] the test system is NFκB. Nature of the data set: NFκB inhibition assay (2 h), NFκB-dependent nanoluc luciferase reporter. It is filed as cell-based, human. The procedure: Experiments were performed according to the published protocol. On day 1, 4 × 10^4 NFκB-MDA-MB-231-nanoluc cells were seeded into white 96 well plates (Greiner; #655098). On day 2, the medium was replaced with starvation medium and the cells were pre-incubated for 20 min with either 100 µL of DMSO (Roth; #A994.1) alone at a concentration of maximal 0.1% or with the final concentration of the diluted compounds (Table 3). To activate NFκB signaling, cells were stimulated with 1 µg/mL LPS (Sigma-Aldrich; #L2630) beforehand. NFκB-dependent luciferase activity was measured according to the manufacturer`s protocol for the Nano-Glo Luciferase Assay System (Promega, Mannheim, Germany; #N1110). NFκB-dependent luminescence was determined as relative light units (RLU) using the microplate reader Spark® (Tecan, Männedorf, Switzerland).
In general terms: Reporter assays use an easily measured gene product as a stand-in for the process of interest.

In data set [2] the test system is 3D co-culture spheroids of MDA-MB-231 and primary murine CAFs. Nature of the data set: 3D cell viability (ATP content) in TNBC co-culture spheroids. It is filed as cell-based, human MDA-MB-231. The note with it: for IC50: Mus musculus. As to the method:
On day 1, 3000 cells were seeded into a low-attachment 96 well plate (Greiner; #650970). […] Cell viability was determined based on the ATP content in viable cells according to the manufacturer`s instructions (Promega #G9682). Co-culture spheroids were generated for 72 h before they were grown for another 72 h with or without exposure to the compounds. […] Cell viability-dependent luminescence was determined as relative light units (RLU) using the microplate reader Spark® (Tecan).

The subject of data set [3] is MDA-MB-231. Nature of the data set: 2D cell viability (PrestoBlue resazurin) in MDA-MB-231. It is filed as cell-based, human. Particulars: Homo sapiens. As to the method:
Cell viability was determined based on resazurin-reduction in viable cells according to the PrestoBlue^TM Assay. On day 1, MDA-MB-231 (1.5 × 10^4 cells per well or 7.5 × 10^3 cells per well) were seeded into black 96 well plates (Greiner; #655090) in a total volume of 100 µL. On day 2, the compounds or DMSO (Roth; #A994.1) alone at maximal 0.1% were applied (final concentrations after serial dilution shown in Table 3). An amount of 20 µM staurosporine (Sigma-Aldrich; #S5921) served as a positive control. On day 3, the PrestoBlue^TM reagent (Invitrogen^TM, Darmstadt, Germany; #A13262) was applied according to the manufacturer`s instructions. Finally, cell viability-dependent fluorescence was recorded in relative fluorescence units (RFU) with excitation/emission (Exλ/Emλ) at 535/590 nm or 560/590 nm, using the microplate reader Spark® (Tecan).
Background: Alamar Blue is a resazurin reagent that responds to reducing activity.

The subject of data set [4] is HIF. The arrangement: method as in earlier work. The note with it: luminal breast cancer cell line T47D; ref 62 (Chen et al.); cited from earlier work.
In data set [5] the test system is NFκB. Nature of the data set: NFκB inhibition assay (24 h), NFκB-dependent firefly luciferase reporter. In kind it is cell-based. Particulars: Homo sapiens, read-out: NFκB Inhibition 24 h IC50. As to the method:
On day 1, 3 × 10^4 NFκB MDA-MB-231-firefly cells were seeded into white 96 well plates (Greiner; #655098). On day 2, the medium was replaced with starvation medium and the cells were pre-incubated for 20 min with either 100 µL of DMSO (Roth; #A994.1) alone at maximal 0.1%, or with the final concentration of the diluted compounds (Table 3). To activate NFκB signaling, cells were stimulated with 20 ng/mL TNFα (Peprotech, Hamburg, Germany; #300-01A). Cell lysis was performed in 20 µL 1× cell lysis buffer according to the manufacturer’s instruction for the Luciferase Assay System (Promega #E1500). NFκB-dependent luminescence was determined as relative light units (RLU) using the microplate reader Spark® (Tecan).

For data set [6], the system named is CAFs. Nature of the data set: 2D cell viability in CAFs. In kind it is cell-based, murine. Particulars: Mus musculus, 24 h, read-out: Reduction of Cell Viability 24 h IC50 in CAFs. As to the method:
Table S1 IC50-values for reduction of cell viability determined in CAFs.
Compound Cell Viability 1
1 Cell viability of CAFs was determined 24 h post-treatment with the 2D cell viability assay. CAFs were seeded at a cell density of 2.5 × 10^3 cells per well. Compound concentration was applied in triplicates in a four-fold serial dilution starting at 1000 nM. 2 Duration of treatment. 3 Mean ± SD […]
50 µM. 4 Mean ± SD (n = 3). 5 Mean ± SD (n = 2).

Data set [7] concerns HIF-1α. Nature of the data set: HIF inhibition, HIF-mediated UnaG reporter expression. It is filed as cell-based. The procedure:
The HIF activity after treatment with compound (1s) or with the commercially available NFκB inhibitor BAY 11-7085 ((Hycultec, Beutelsbach, Germany; #HY-10257-10),) for 24 h was determined using the UnaG-reporter gene cell line MDA-MB-468-UnaG. On day 1, 1.5 × 10^4 MDA-MB-468-UnaG cells were seeded into a black 96 well plate (Greiner; #655090). […] HIF-mediated UnaG expression was recorded in z-stacked images using the CQ1 high-content imaging system (Yokogawa, Wehr, Germany; 100× g magnification). Beforehand, the UnaG fluorescence intensity was determined in UnaG-expressing cell clones (Figure S5).
Figure 7 Compound (1s) decreases HIF-dependent gene transcription. MDA-MB-468-UnaG cells were pre-treated for 1 h without (CTRL) or with compound (1s) or BAY 11-7085 (BAY) before being grown (a,b) in the absence (normoxia; CTRL) or (c,d) presence of 100 µM CoCl2 (hypoxia) for another 24 h. (a,c) Representative fluorescence images. Scale bar: 200 µm (b,d) Total fluorescence intensity of HIF-mediated UnaG was normalized to the CTRL group. Statistical difference was calculated with one-way ANOVA (b) vs. CTRL (normoxia) (ns = not significant, * p < 0.05). (d) vs. CTRL (hypoxia) (# p < 0.05); vs. CoCl2 (* p < 0.05, ** p < 0.01, *** p < 0.001). (b,d) Columns represent the mean ± SEM (n = 3).

[8] abbreviates: Homo sapiens, NFκB-MDA-MB-231-nanoluc cells, 2-h treatment, mean ± SD, read-out: NFκB Inhibition 2 h IC50.
Where [9] appears, read: MDA-MB-231, 3D co-culture spheroids, 72 h treatment, mean ± SD (n = 3), read-out: Reduction of Cell Viability 72 h IC50.
[10] abbreviates: MDA-MB-231 2D monolayer, 24 h post-treatment, mean ± SD, read-out: Reduction of Cell Viability 24 h IC50.
[11] abbreviates: NFκB-MDA-MB-231-firefly cells, 24-h treatment, 20 ng/mL TNFα, mean ± SD.

Where two headings read alike, the source gives them in different places.

By IC50 is commonly meant the concentration needed to halve the response being measured. On to `COc1ccc2c3c(c4cc(OC)c(O)cc4c2c1)CN1CCC[C@H]1[C@H]3O` [Compound (2), tylophorinidine], for which the IC50 in data set [1] (setting [8]) came out at 212 ± 69.9 nM; in data set [2] (setting [9]) it was 442 ± 70.8 nM; in data set [3] (setting [10]) it was 118 ± 35 nM; in data set [5] (setting [11]), 38.2 ± 14.2 nM; in data set [6] (CAFs, mean ± SD (n = 3)), 19.7 ± 3.7 nM. Further, in data set [4], the “HIF induction under low oxygen level” value was “blockade of HIF induction”.
For `COc1ccc2c(c1)c1cc(OC)c(OC)cc1c1c[n+]3c(cc21)CCC3` [Compound (5), tylophoridicine D], the IC50 is above 1000 nM in data set [1] (setting [8]); above 1000 nM in data set [2] (setting [9]); above 1000 nM in data set [3] (setting [10]); above 1000 nM in data set [5] (setting [11]); above 1000 nM in data set [6] (CAFs, mean ± SD (n = 3)). The “cytotoxic activity” value in data set [2] (in MDA-MB-231 or in the 3D co-culture spheroids) is “no cytotoxic activity”. For the same compound, the “HIF induction under low oxygen level” value in data set [4] was “not”.
Regarding `CC(C)(C)c1ccc(S(=O)(=O)/C=C/C#N)cc1` [BAY 11-7085, reference compound], in data set [1] (NFκB-MDA-MB-231-nanoluc cells, 2-h treatment, mean ± SD, read-out: NFκB Inhibition 2 h IC50), the IC50 worked out at 5500 ± 2000 nM. The “effect on HIF-1α-mediated UnaG expression” value in data set [7] (normoxia) is “no significant effects”. Also, the “CoCl2-induced increase in HIF-1α-activity” value in data set [7] (pre-treatment before CoCl2-simulated hypoxia, 6 µM BAY 11-7085, 2, 5, 10, 20 nM (1s)) is “blocked”.
With `COc1ccc2c(c1)c1cc(O)c(OC)cc1c1c[n+]3c(cc21)CCC3` [Compound (6), anhydrodehydrotylophorinidine], the IC50 in data set [1] (setting [8]) is above 1000 nM; in data set [2] (setting [9]), above 1000 nM; in data set [3] (setting [10]) it was above 1000 nM; in data set [5] (setting [11]) it was above 1000 nM; in data set [6] (CAFs, mean ± SD (n = 3)), above 1000 nM. Also, the “cytotoxic activity” value in data set [2] is given as “no cytotoxic activity”.
In the case of `COc1ccc2c3c(c4cc(OC)c(OC)cc4c2c1)CN1CCC[C@H]1[C@@H]3O` [tylophorinine], the “HIF induction under low oxygen level” value in data set [4] is listed as “blockade of HIF induction”.
For `COc1cc2c3c(c4ccc(O)cc4c2cc1OC)[C@H](O)[C@@H]1CCCN1C3` [Compound (3), tylophoridicine E], the IC50 in data set [1] (setting [8]) stood at 285 ± 60.4 nM; in data set [2] (setting [9]), 477 ± 160 nM; in data set [3] (setting [10]) it was 55.3 ± 13.2 nM; in data set [5] (setting [11]) it was 114 ± 17.9 nM; in data set [6] (CAFs, mean ± SD (n = 3)) it was 26.7 ± 3.1 nM. The “HIF induction under low oxygen level” value in data set [4] is “blockade of HIF induction”.
For `COc1ccc2c3c(c4cc(OC)c(OC)cc4c2c1)CN1CCC[C@H]1C3` [Compound (4), 2-demethoxytylophorine], the IC50 in data set [1] (Homo sapiens, 2 h, read-out: NFκB Inhibition 2 h IC50, NFκB-MDA-MB-231-nanoluc cells, 2-h treatment, mean ± SD) was determined as 83 ± 14.7 nM; in data set [2] (MDA-MB-231, 72 h, read-out: Reduction of Cell Viability 72 h IC50, 3D co-culture spheroids, 72 h treatment, mean ± SD (n = 3)) it was 518 ± 76.8 nM; in data set [3] (MDA-MB-231, 24 h, read-out: Reduction of Cell Viability 24 h IC50, MDA-MB-231 2D monolayer, 24 h post-treatment, mean ± SD) it was 127 ± 21.4 nM; in data set [5] (24 h) it was 28.3 ± 5.6 nM; in data set [6] it was 33.5 ± 12.7 nM.

Source of the values: publication PMC9499467, “Phenanthroindolizidine Alkaloids Isolated from Tylophora ovata as Potent Inhibitors of Inflammation, Spheroid Growth, and Invasion of Triple-Negative Breast Cancer” (International Journal of Molecular Sciences, 2022).
